Source: patent publication US9499496B2, “Inhibitors of respiratory syncytial virus” (University of Kansas, priority 2012, dated 2016)
Several values for one entry are separate records, joined by “and”; a condition that tells them apart may be missing. Identical values can stand only once. Like-named read-outs stand apart in the source and are kept apart here. Marks after values point to notes of the source that are not given here.

Assays:
[1] = system: RSV; test: RSV CPE assay (inhibition of RSV-induced cytopathic effect, luminescent cell viability readout); format: cell-based, RSV (strain Long); conditions: for Selectivity Index (CC50/EC50): antiviral activity over HEp-2 cell cytotoxicity
[2] = system: RSV; test: RSV plaque reduction assay (titer reduction); format: cell-based, RSV Long strain; conditions: HEp-2 cells; for Plaque Reduction Assay (log reduction) at 10 μM: 10 μM test compound; for Plaque Reduction Assay (log reduction): concentration not given
[3] = system: HEp-2 cells; conditions: HEp-2 cell cytotoxicity
[4] = in vitro; conditions: human
[5] = physchem; conditions: 23 °C, pH 7.4, aqueous buffer
[6] = physchem; conditions: plasma or biological fluid
[7] = system: RSV; test: Time of addition CPE assay; format: cell-based, RSV Long strain; conditions: for Change in cell viability with time of addition: addition at time points between 7-24 hours post-infection
Procedure: Assay Description: HEp-2 cells were plated in 96 well black tissue culture plates at 10,000 cells per well in 80 μl and incubated 24 hours at 37° C., 5% CO2. All cell plating was conducted using a Matrix WellMate™ and cells were maintained at room temperature with stirring during the plating process. Compounds were diluted in media to give a final concentration of 25 μM and added to plates at −1, 0, 1, 4, 6, 20 and 24 hours post-infection (p.i.). The cells were infected with RSV Long strain at an MOI of 3 and the assay plates were incubated for six days at 37° C., 5% CO2 and 90% relative humidity.
The Cell Titer Glo® assay was used to determine viability of the cells. The assay plates were equilibrated to room temperature for 10 minutes and then an equal volume of Cell Titer-Glo reagent (Promega Inc.) was added to each well. Plates were incubated for 10 min at room temperature and luminescence was measured using a multi-label plate reader with an integration time of 0.1 s.
A cell-based assay was used to determine the ability of the probe to inhibit different stages of a single round of viral replication. […] Compounds B and F (diamonds and squares, respectively) are of similar chemical structure. The percent cell viability values at each time point for the respective molecules are compared with that of ribavirin (RBV). […] This sustained efficacy may be due to the inhibition of one or more late virus life cycle steps (post-entry or late-stage infection processes), and this hypothesis is supported by an ability to affect processes later in the viral replication cycle.

[8] = system: vaccinia; format: cell-based
[9] = system: influenza A; format: cell-based
[10] = system: Venezuelan equine encephalitis; format: cell-based
[11] = system: dengue viruses; format: cell-based
[12] = system: Calcium Channel L-Type, Benzothiazepine; test: Ricerca LeadProfiling screen; format: binding; conditions: 10 μM, duplicate, rat
[13] = system: Calcium Channel L-Type, Dihydropyridine; test: Ricerca LeadProfiling screen; format: binding; conditions: 10 μM, duplicate, rat
[14] = system: Ricerca LeadProfiling screen made up of 67 assays; test: Ricerca LeadProfiling screen, all other targets of the 67 assays; format: binding; conditions: 10 μM, duplicate
[15] = Stability in PBS over 48 h; conditions: for Stability in PBS (% parent remaining after 48 h), with acetonitrile: PBS with 50% acetonitrile; for Stability in PBS (% parent remaining after 48 h): no additives, 23° C.
[16] = in vitro; conditions: PAMPA
[17] = human respiratory syncytial virus, HEp-2 cells, RSV-induced CPE, read-out: CPE Assay EC50

SMILES | Selectivity Index (CC50/EC50) [1] | EC50 [1, 17] | Plaque Reduction Assay (log reduction) at 10 μM [2] | Plaque Reduction Assay (log reduction) [2] | CC50 at 6 days ([4]; CC50, HEp-2 cell cytotoxicity) | solubility [5] | solubility [6] | Change in cell viability with time of addition [7] | further results
CN(C)c1ccc(Cn2c(=O)n(Cc3ccc(C(=O)NCC4COC4)cc3)c(=O)c3ccccc32)cc1 [Compound E, 4-((1-(4-(dimethylamino)benzyl)-2,4-dioxo-1,2-dihydroquinazolin-3(4H)-yl)methyl)-N-(oxetan-3-ylmethyl)benzamide] | 41.8 | 1070 ± 220 nM | >6.18 log reduction | >6.18 log reduction | ~50000 nM | 5.6 µg/mL and 11.2 µM | 9.2 µg/mL and 18.4 µM |  | Plaque Reduction Assay (log reduction) ([2]; listed as FIG. 5, entry 7): > 6 log reduction; CC50 [3]: 44700 ± 7220 nM
COCCCNC(=O)c1ccc(Cn2c(=O)c3ccccc3n(Cc3ccc(C)cc3)c2=O)cc1 [hit compound, 4-((1-(4-methylbenzyl)-2,4-dioxo-1,2-dihydroquinazolin-3(4H)-yl)methyl)-N-(3-methoxypropyl)benzamide] |  | 2140 nM |  | 4.15 log reduction | 59500 nM |  |  |  | 
COCCCNC(=O)c1ccc(Cn2c(=O)c3ccccc3n(Cc3ccc(C(C)C)cc3)c2=O)cc1 [Compound A, 4-((1-(4-isopropylbenzyl)-2,4-dioxo-1,2-dihydroquinazolin-3(4H)-yl)methyl)-N-(3-methoxypropyl)benzamide] |  |  | 6.7 log reduction and 6.70 log reduction | 6.70 log reduction | > 200000 nM |  |  | does not result in a dramatic change in cell viability | EC50 ([1]; human respiratory syncytial virus, read-out: RSV CPE assay, repeated, repeat of the RSV CPE assay): 340 nM; EC50 ([1]; read-out: CPE Assay EC50, HEp-2 cells, RSV-induced CPE): 810 nM; Latest effective time of addition ([7]; single round of viral replication, compound added −1 to 24 h post-infection): > 24 hours post-infection; Efficacy in inhibiting vaccinia [8]: no efficacy; Efficacy in inhibiting influenza A [9]: no efficacy; Efficacy in inhibiting Venezuelan equine encephalitis virus [10]: no efficacy; Efficacy in inhibiting dengue viruses [11]: no efficacy; Percent Inhibition [12]: 52%; Percent Inhibition [13]: 70%; Inhibition, all other targets [14]: below 34%
CCc1ccc(Cn2c(=O)n(Cc3ccc(C(=O)NCCCOC)cc3)c(=O)c3ccccc32)cc1 [Compound D, 4-((1-(4-ethylbenzyl)-2,4-dioxo-1,2-dihydroquinazolin-3(4H)-yl)methyl)-N-(3-methoxypropyl)benzamide] | 94.9 and 94.5 | 1000 ± 50 nM | 5.90 log reduction | 5.90 log reduction | 94800 ± 3750 nM |  | 1.5 µg/mL and 3.09 µM |  | 
COCCCNC(=O)c1ccc(Cn2c(=O)c3ccccc3n(Cc3ccc([N+](=O)[O-])cc3)c2=O)cc1 [Compound B, N-(3-methoxypropyl)-4-((1-(4-nitrobenzyl)-2,4-dioxo-1,2-dihydroquinazolin-3(4H)-yl)methyl)benzamide] |  | 570 ± 14 nM | >5.56 log reduction | >5.56^a log reduction | 128000 ± 4240 nM |  |  | does not result in a dramatic change in cell viability | EC50 ([1]; human respiratory syncytial virus, repeat of the RSV CPE assay, read-out: RSV CPE assay, repeated): 200 nM; CC50 [3]: > 128000 nM; Stability in PBS (% parent remaining after 48 h), with acetonitrile [15]: 94.9% (with; Stability in PBS (% parent remaining after 48 h) [15]: 83.4% (PBS);
COCCCNC(=O)c1ccc(Cn2c(=O)c3ccccc3n(Cc3ccc(Br)cc3)c2=O)cc1 [Compound C, 4-((1-(4-bromobenzyl)-2,4-dioxo-1,2-dihydroquinazolin-3(4H)-yl)methyl)-N-(3-methoxypropyl)benzamide] | 118.9 | 850 ± 150 nM | 4.07 log reduction | 4.07 log reduction | 98800 ± 8700 nM | 0.31 µg/mL and 0.58 µM | 2.7 µg/mL and 5.03 µM |  | Stability in PBS (% parent remaining after 48 h), with acetonitrile [15]: 100% (with; Stability in PBS (% parent remaining after 48 h) [15]: 57.5% (PBS);
NC(=O)c1ncn([C@@H]2O[C@H](CO)[C@@H](O)[C@H]2O)n1 [ribavirin, reference compound] |  | 28400 nM | 2.47 log reduction |  |  |  |  |  | Protection of cells from RSV-induced CPE ([7]; added up to 7 hours post-infection): approximately 100%; CC50 at 6 days [4]: 114000 ± 38500 nM
CNC(=C[N+](=O)[O-])NCCSCc1ccc(CN(C)C)o1 [Ranitidine] |  |  |  |  |  |  |  |  | Papp [16]: < 10 ×10⁻⁶ cm/s; Papp ([16]; pH 7.4): < 10 ×10⁻⁶ cm/s
Cc1ccc(Cn2c(=O)n(Cc3ccc(C(=O)NCC4COC4)cc3)c(=O)c3ccccc32)cc1 [Compound F, 4-((1-(4-methylbenzyl)-2,4-dioxo-1,2-dihydroquinazolin-3(4H)-yl)methyl)-N-(oxetan-3-ylmethyl)benzamide] |  | 710 ± 130 nM | 5.10 log reduction | 5.1 log reduction |  | 4.5 µg/mL and 0.75 µM | 4.5 µg/mL and 9.58 µM | does not result in a dramatic change in cell viability | EC50 ([1]; human respiratory syncytial virus, HEp-2 cells, read-out: CPE EC50 (potency) as given): ~700 nM
